According to patent US12227496B2 (BRISTOL-MYERS SQUIBB COMPANY, priority 2019, dated 2025):

Target: T1, human FXR (Homo sapiens, UniProt Q96RI1)
T1 construct: expressed in transfected cells; host or cells: HEK293 cells stably carrying a 5xGal4-response-element firefly luciferase reporter, transiently transfected with pcDNA3.1-Gal4-FXR
T1 sequence (Q96RI1 262-486 limits assumed): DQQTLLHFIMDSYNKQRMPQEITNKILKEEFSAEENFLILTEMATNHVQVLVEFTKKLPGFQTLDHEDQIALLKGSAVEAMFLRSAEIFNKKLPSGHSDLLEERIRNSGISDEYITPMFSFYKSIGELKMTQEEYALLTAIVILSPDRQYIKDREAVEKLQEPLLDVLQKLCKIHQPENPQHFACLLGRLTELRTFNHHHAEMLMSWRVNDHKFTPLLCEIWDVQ
Experiment: transient human FXR/Gal4-luciferase reporter assay
Type: cell-based
Conditions: Gal4-hFXR LBD fusion, luciferase reporter in HEK293 cells; response relative to 8 μM GW-4064
Method in brief: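 HEK293 cells stably carrying a 5×Gal4-response-element firefly luciferase reporter were transiently transfected with Gal4-hFXR. They were then incubated overnight at 37 °C with compound serial dilutions in medium containing 10% charcoal/dextran-stripped FBS. Luminescence was read after Steady-Glo addition.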

| Compound | EC50 [µM] |
| --- | --- |
| CCOc1ncc(-c2cccc(N(CC34CCC(c5nc(C(C)(C)C)no5)(CC3)CC4)C(=O)C3CCOCC3)c2)cn1 [Example 87, N-((4-(3-(tert-butyl)-1,2,4-oxadiazol-5-yl)bicyclo[2.2.2]octan-1-yl)methyl)-N-(3-(2-ethoxypyrimidin-5-yl)phenyl)tetrahydro-2H-pyran-4-carboxamide] | 0.274 |
| O=C(C1CCOCC1)N(CC12CCC(c3nc(C4CC4)no3)(CC1)CC2)c1cccc(-c2ccnc(OC3CC3)n2)c1 [Example 86, N-(3-(2-cyclopropoxypyrimidin-4-yl)phenyl)-N-((4-(3-cyclopropyl-1,2,4-oxadiazol-5-yl)bicyclo[2.2.2]octan-1-yl)methyl)tetrahydro-2H-pyran-4-carboxamide] | 2.47 |
| Cc1nc2ccc(-c3cccc(N(CC45CCC(c6nc(C7CC7)no6)(CC4)CC5)C(=O)C4CCCCC4)c3)cc2s1 [Example 90, N-((4-(3-cyclopropyl-1,2,4-oxadiazol-5-yl)bicyclo[2.2.2]octan-1-yl)methyl)-N-(3-(2-methylbenzo[d]thiazol-6-yl)phenyl)cyclohexanecarboxamide] | 0.036 |
| O=C(C1CCCCC1)N(CC12CCC(c3nc(C4CC4)no3)(CC1)CC2)c1cccc(-c2cnc(C3CCOCC3)o2)c1 [Example 34, N-((4-(3-cyclopropyl-1,2,4-oxadiazol-5-yl)bicyclo[2.2.2]octan-1-yl)methyl)-N-(3-(2-(tetrahydro-2H-pyran-4-yl)oxazol-5-yl)phenyl)cyclohexanecarboxamide] | 0.212 |
| COc1cccc(-c2cccc(N(CC34CCC(c5nc(C)no5)(CC3)CC4)C(=O)C3CCCCC3)c2)c1 [Example 72, N-(3′-methoxy-[1,1′-biphenyl]-3-yl)-N-((4-(3-methyl-1,2,4-oxadiazol-5-yl)bicyclo[2.2.2]octan-1-yl)methyl)cyclohexanecarboxamide] | 0.307 |
| COc1ncc(-c2cccc(N(CC34CCC(c5nc(C6CC6)no5)(CC3)CC4)C(=O)C3CCCCC3)c2)o1 [Example 7, N-((4-(3-cyclopropyl-1,2,4-oxadiazol-5-yl)bicyclo[2.2.2]octan-1-yl)methyl)-N-(3-(2-methoxyoxazol-5-yl)phenyl)cyclohexanecarboxamide] | 0.051 |
| CC(F)(F)c1nc(C23CCC(CN(C(=O)C4CCC(F)(F)CC4)c4cccc(-c5nc(C6CC6)no5)c4)(CC2)CC3)no1 [Example 112, N-(3-(3-cyclopropyl-1,2,4-oxadiazol-5-yl)phenyl)-N-((4-(5-(1,1-difluoroethyl)-1,2,4-oxadiazol-3-yl)bicyclo[2.2.2]octan-1-yl)methyl)-4,4-difluorocyclohexane-1-carboxamide] | 0.142 |
| O=C(C1CCC(F)(F)CC1)N(CC12CCC(c3nc(C4CC4)no3)(CC1)CC2)c1cccc(-c2cc(C3CC3)no2)c1 [Example 151, N-((4-(3-cyclopropyl-1,2,4-oxadiazol-5-yl)bicyclo[2.2.2]octan-1-yl)methyl)-N-(3-(3-cyclopropylisoxazol-5-yl)phenyl)-4,4-difluorocyclohexane-1-carboxamide] | 0.038 |
| CCOc1ncc(-c2cccc(N(CC34CCC(c5nc(C(C)(C)C)no5)(CC3)CC4)C(=O)c3cc(Cl)cc(Cl)c3)c2)cn1 [Example 125, N-((4-(3-(tert-Butyl)-1,2,4-oxadiazol-5-yl)bicyclo[2.2.2]octan-1-yl)methyl)-3,5-dichloro-N-(3-(2-ethoxypyrimidin-5-yl)phenyl)benzamide] | 0.726 |
| CC(C)(C)c1noc(C23CCC(CN(C(=O)C4CCS(=O)(=O)CC4)c4cccc(-c5cc(C6CC6)on5)c4)(CC2)CC3)n1 [Example 160, N-((4-(3-(tert-butyl)-1,2,4-oxadiazol-5-yl)bicyclo[2.2.2]octan-1-yl)methyl)-N-(3-(5-cyclopropylisoxazol-3-yl)phenyl)tetrahydro-2H-thiopyran-4-carboxamide 1,1-dioxide] | 0.701 |
| CC(C)(C)c1nc(C23CCC(CN(C(=O)C4CCS(=O)(=O)CC4)c4cccc(-c5nc(C6CC6)no5)c4)(CC2)CC3)no1 [Example 117, N-((4-(5-(tert-butyl)-1,2,4-oxadiazol-3-yl)bicyclo[2.2.2]octan-1-yl)methyl)-N-(3-(3-cyclopropyl-1,2,4-oxadiazol-5-yl)phenyl)tetrahydro-2H-thiopyran-4-carboxamide 1,1-dioxide] | 0.729 |
| COc1cc(-c2cccc(N(CC34CC(c5nc(C6CC6)no5)(C3)C4)C(=O)C3CCCCC3)c2)ccn1 [Example 96, N-((3-(3-cyclopropyl-1,2,4-oxadiazol-5-yl)bicyclo[1.1.1]pentan-1-yl)methyl)-N-(3-(2-methoxypyridin-4-yl)phenyl)cyclohexanecarboxamide] | 3.43 |
| O=C(C1CCOCC1)N(CC12CCC(c3nc(C4CC4)no3)(CC1)CC2)c1cccc(-c2nc(C3CC3)no2)c1 [Example 15, N-((4-(3-cyclopropyl-1,2,4-oxadiazol-5-yl)bicyclo[2.2.2]octan-1-yl)methyl)-N-(3-(3-cyclopropyl-1,2,4-oxadiazol-5-yl)phenyl)tetrahydro-2H-pyran-4-carboxamide] | 0.134 |
| O=C(C1CCCCC1)N(CC12CCC(c3nc(C4CC4)no3)(CC1)CC2)c1cccc(-c2nc(C(F)F)co2)c1 [Example 37, N-((4-(3-cyclopropyl-1,2,4-oxadiazol-5-yl)bicyclo[2.2.2]octan-1-yl)methyl)-N-(3-(4-(difluoromethyl)oxazol-2-yl)phenyl)cyclohexanecarboxamide] | 0.166 |
| CCOc1ccc(-c2cccc(N(CC34CCC(c5nc(C(C)(C)C)no5)(CC3)CC4)C(=O)C3CCC(OC)CC3)c2)cc1 (single isomer, unassigned) [Example 145, N-((4-(3-(tert-butyl)-1,2,4-oxadiazol-5-yl)bicyclo[2.2.2]octan-1-yl)methyl)-N-(4′-ethoxy-[1,1′-biphenyl]-3-yl)-4-methoxycyclohexane-1-carboxamide] | 0.303 |
| CCCc1ncc(-c2cccc(N(CC34CCC(c5nc(C6CC6)no5)(CC3)CC4)C(=O)C3CCCOC3)c2)o1 (racemic) [Example 30, N-((4-(3-cyclopropyl-1,2,4-oxadiazol-5-yl)bicyclo[2.2.2]octan-1-yl)methyl)-N-(3-(2-propyloxazol-5-yl)phenyl)tetrahydro-2H-pyran-3-carboxamide] | 0.145 |
| CC(C)(O)c1nc(-c2cccc(N(CC34CCC(c5nc(C6CC6)no5)(CC3)CC4)C(=O)C3CCCCC3)c2)cs1 [Example 32, N-((4-(3-cyclopropyl-1,2,4-oxadiazol-5-yl)bicyclo[2.2.2]octan-1-yl)methyl)-N-(3-(2-(2-hydroxypropan-2-yl)thiazol-4-yl)phenyl)cyclohexanecarboxamide] | 0.32 |
| COc1ncc(-c2cccc(N(CC34CCC(c5nc(C)no5)(CC3)CC4)C(=O)C3CCCCC3)c2)o1 [Example 6, N-(3-(2-methoxyoxazol-5-yl)phenyl)-N-((4-(3-methyl-1,2,4-oxadiazol-5-yl)bicyclo[2.2.2]octan-1-yl)methyl)cyclohexanecarboxamide] | 0.118 |
| Cc1nc2ccc(-c3cccc(N(CC45CCC(c6nc(C7CC7)no6)(CC4)CC5)C(=O)C4CCOCC4)c3)cc2s1 [Example 91, N-((4-(3-cyclopropyl-1,2,4-oxadiazol-5-yl)bicyclo[2.2.2]octan-1-yl)methyl)-N-(3-(2-methylbenzo[d]thiazol-6-yl)phenyl)tetrahydro-2H-pyran-4-carboxamide] | 0.097 |
